US20110098261A1, “TRITERPENOID-BASED COMPOUNDS USEFUL AS VIRUS INHIBITORS” (priority 2008, published 2011)
Where two headings read alike, the source gives them in different places.

What was measured:
[1] = tested on: avian influenza virus KBNP-0028 (KCTC 10866BP); type: cell-based, A/chicken/Korea/SNU0028/2000(H9N2)
[2] = tested on: chicken embryo fibroblast (CEF) cells

## C=C(C)[C@@H]1CC[C@]2(C=O)CC[C@]3(C)[C@H](CC[C@@H]4[C@@]5(C)CC[C@H](O)C(C)(C)[C@@H]5CC[C@]43C)[C@@H]12 [12B-AJ-26A, betulinic aldehyde]
[1]
  Antiviral activity (in words): showed antiviral activity
[2]; 6.25 μg/mL
  Cytotoxicity assay (absorbance): 0.352
[2]; 12.5 μg/mL
  Cytotoxicity assay (absorbance): 0.326
[2]; 25 μg/mL
  Cytotoxicity assay (absorbance): 0.324
[2]; 50 μg/mL
  Cytotoxicity assay (absorbance): 0.325
[2]; 100 μg/mL
  Cytotoxicity assay (absorbance): 0.434
[2]; 200 μg/mL
  Cytotoxicity assay (absorbance): 0.421
